Results from PubChem BioAssay (NCI).
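Values below derive from 48-hour exposures of cells grown in 96-well plates, with endpoints linearly interpolated between the two concentrations bracketing the appropriate inhibition level. Definition used: TGI = concentration required for complete inhibition of growth.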

Experiments:
Assay in all cases: DTP human tumour cell line panel, 48 h
HT29 colon = test system: HT29 colon
MALME-3M melanoma = test system: MALME-3M melanoma
SF-539 CNS = test system: SF-539 CNS
ACHN renal = test system: ACHN renal
UACC-62 melanoma = test system: UACC-62 melanoma
HOP-62 NSCLC = test system: HOP-62 NSCLC
HL-60(TB) leukemia = test system: HL-60(TB) leukemia
SF-268 CNS = test system: SF-268 CNS
SNB-78 CNS = test system: SNB-78 CNS
OVCAR-3 ovarian = test system: OVCAR-3 ovarian
HOP-18 NSCLC = test system: HOP-18 NSCLC
DLD-1 colon = test system: DLD-1 colon
OVCAR-5 ovarian = test system: OVCAR-5 ovarian
RXF-631 renal = test system: RXF-631 renal
NCI-H460 lung = test system: NCI-H460 lung
UACC-257 melanoma = test system: UACC-257 melanoma
DMS 114 small cell lung = test system: DMS 114 small cell lung
CCRF-CEM leukemia = test system: CCRF-CEM leukemia
K-562 leukemia = test system: K-562 leukemia
KM12 colon = test system: KM12 colon
SF-295 CNS = test system: SF-295 CNS
OVCAR-4 ovarian = test system: OVCAR-4 ovarian
A498 renal = test system: A498 renal
TK-10 renal = test system: TK-10 renal
EKVX NSCLC = test system: EKVX NSCLC
OVCAR-8 ovarian = test system: OVCAR-8 ovarian
LOX IMVI melanoma = test system: LOX IMVI melanoma
SK-MEL-5 melanoma = test system: SK-MEL-5 melanoma
A549 NSCLC = test system: A549 NSCLC
SK-OV-3 ovarian = test system: SK-OV-3 ovarian
IGROV1 ovarian = test system: IGROV1 ovarian
786-0 renal = test system: 786-0 renal
NCI-H522 lung = test system: NCI-H522 lung
DMS 273 small cell lung = test system: DMS 273 small cell lung
HCT-116 colon = test system: HCT-116 colon
MOLT-4 leukemia = test system: MOLT-4 leukemia
RXF 393 renal = test system: RXF 393 renal
COLO 205 colon = test system: COLO 205 colon
NCI-H23 lung = test system: NCI-H23 lung
M14 melanoma = test system: M14 melanoma
SNB-19 CNS = test system: SNB-19 CNS
KM20L2 colon = test system: KM20L2 colon
CAKI-1 renal = test system: CAKI-1 renal
SN12C renal = test system: SN12C renal
XF 498 CNS = test system: XF 498 CNS
SNB-75 CNS = test system: SNB-75 CNS
NCI-H226 lung = test system: NCI-H226 lung
HCT-15 colon = test system: HCT-15 colon
HOP-92 NSCLC = test system: HOP-92 NSCLC
SK-MEL-28 melanoma = test system: SK-MEL-28 melanoma
SK-MEL-2 melanoma = test system: SK-MEL-2 melanoma
SW-620 colon = test system: SW-620 colon
U251 CNS = test system: U251 CNS
SR leukemia = test system: SR leukemia
HCC-2998 colon = test system: HCC-2998 colon
UO-31 renal = test system: UO-31 renal
M19-MEL melanoma = test system: M19-MEL melanoma
RPMI-8226 leukemia = test system: RPMI-8226 leukemia
LXFL 529 NSCLC = test system: LXFL 529 NSCLC

## CC1=NOC(=O)/C1=C/c1ccc([N+](=O)[O-])cc1
HT29 colon
  TGI: > 100 µM
MALME-3M melanoma
  TGI: > 100 µM
SF-539 CNS
  TGI: > 100 µM
ACHN renal
  TGI: > 100 µM
UACC-62 melanoma
  TGI: > 100 µM
HOP-62 NSCLC
  TGI: > 100 µM
HL-60(TB) leukemia
  TGI: > 100 µM
SF-268 CNS
  TGI: > 100 µM
SNB-78 CNS
  TGI: > 100 µM
OVCAR-3 ovarian
  TGI: > 100 µM
HOP-18 NSCLC
  TGI: > 100 µM
DLD-1 colon
  TGI: > 100 µM
OVCAR-5 ovarian
  TGI: > 100 µM
RXF-631 renal
  TGI: > 100 µM
NCI-H460 lung
  TGI: > 100 µM
UACC-257 melanoma
  TGI: > 100 µM
DMS 114 small cell lung
  TGI: > 100 µM
CCRF-CEM leukemia
  TGI: > 100 µM
K-562 leukemia
  TGI: > 100 µM
KM12 colon
  TGI: > 100 µM
SF-295 CNS
  TGI: > 100 µM
OVCAR-4 ovarian
  TGI: > 100 µM
A498 renal
  TGI: > 100 µM
TK-10 renal
  TGI: > 100 µM
EKVX NSCLC
  TGI: > 100 µM
OVCAR-8 ovarian
  TGI: > 100 µM
LOX IMVI melanoma
  TGI: > 100 µM
SK-MEL-5 melanoma
  TGI: > 100 µM
A549 NSCLC
  TGI: > 100 µM
SK-OV-3 ovarian
  TGI: > 100 µM
IGROV1 ovarian
  TGI: > 100 µM
786-0 renal
  TGI: > 100 µM
NCI-H522 lung
  TGI: > 100 µM
DMS 273 small cell lung
  TGI: > 100 µM
HCT-116 colon
  TGI: > 100 µM
MOLT-4 leukemia
  TGI: > 100 µM
RXF 393 renal
  TGI: > 100 µM
COLO 205 colon
  TGI: > 100 µM
NCI-H23 lung
  TGI: > 100 µM
M14 melanoma
  TGI: > 100 µM
SNB-19 CNS
  TGI: > 100 µM
KM20L2 colon
  TGI: > 100 µM
CAKI-1 renal
  TGI: > 100 µM
SN12C renal
  TGI: > 100 µM
XF 498 CNS
  TGI: > 100 µM
SNB-75 CNS
  TGI: > 100 µM
NCI-H226 lung
  TGI: > 100 µM
HCT-15 colon
  TGI: > 100 µM
HOP-92 NSCLC
  TGI: > 100 µM
SK-MEL-28 melanoma
  TGI: > 100 µM
SK-MEL-2 melanoma
  TGI: > 100 µM
SW-620 colon
  TGI: > 100 µM
U251 CNS
  TGI: > 100 µM
SR leukemia
  TGI: > 100 µM
HCC-2998 colon
  TGI: > 100 µM
UO-31 renal
  TGI: > 100 µM

## CCOc1ccc(NCC2CC/C(=C\c3ccccc3OC)C2=O)cc1 (stereo not drawn)
HT29 colon
  TGI: 7.78 µM
MALME-3M melanoma
  TGI: 27.6 µM
SF-539 CNS
  TGI: 23.9 µM
ACHN renal
  TGI: 27.8 µM
UACC-62 melanoma
  TGI: 25.5 µM
HOP-62 NSCLC
  TGI: > 57.8 µM
HL-60(TB) leukemia
  TGI: > 23.7 µM
SF-268 CNS
  TGI: 20.8 µM
SNB-78 CNS
  TGI: 44.3 µM
OVCAR-3 ovarian
  TGI: 17.1 µM
HOP-18 NSCLC
  TGI: 28.8 µM
DLD-1 colon
  TGI: 13.6 µM
OVCAR-5 ovarian
  TGI: 32.5 µM
RXF-631 renal
  TGI: 42.5 µM
UACC-257 melanoma
  TGI: 20 µM
DMS 114 small cell lung
  TGI: 28.2 µM
CCRF-CEM leukemia
  TGI: 7.22 µM
K-562 leukemia
  TGI: > 27.5 µM
KM12 colon
  TGI: 9.1 µM
SF-295 CNS
  TGI: 32.3 µM
OVCAR-4 ovarian
  TGI: 12.8 µM
A498 renal
  TGI: 33.9 µM
TK-10 renal
  TGI: 26.7 µM
EKVX NSCLC
  TGI: 31.9 µM
OVCAR-8 ovarian
  TGI: 13 µM
LOX IMVI melanoma
  TGI: 18.6 µM
SK-MEL-5 melanoma
  TGI: 30.3 µM
A549 NSCLC
  TGI: 35.6 µM
SK-OV-3 ovarian
  TGI: 31.1 µM
IGROV1 ovarian
  TGI: 25.5 µM
786-0 renal
  TGI: 8.3 µM
M19-MEL melanoma
  TGI: 26.3 µM
NCI-H522 lung
  TGI: 4.36 µM
DMS 273 small cell lung
  TGI: 6.76 µM
HCT-116 colon
  TGI: 14.5 µM
MOLT-4 leukemia
  TGI: 20.9 µM
RXF 393 renal
  TGI: 21.4 µM
COLO 205 colon
  TGI: 5.59 µM
NCI-H23 lung
  TGI: 34.7 µM
M14 melanoma
  TGI: 12.1 µM
SNB-19 CNS
  TGI: 30 µM
KM20L2 colon
  TGI: 28.4 µM
CAKI-1 renal
  TGI: 25.4 µM
SN12C renal
  TGI: 19.4 µM
SNB-75 CNS
  TGI: 31.1 µM
NCI-H226 lung
  TGI: 34.1 µM
HCT-15 colon
  TGI: 7.82 µM
RPMI-8226 leukemia
  TGI: 3.91 µM
HOP-92 NSCLC
  TGI: 34 µM
LXFL 529 NSCLC
  TGI: 6.5 µM
SK-MEL-28 melanoma
  TGI: 24.1 µM
SK-MEL-2 melanoma
  TGI: 35.2 µM
SW-620 colon
  TGI: 14.3 µM
U251 CNS
  TGI: 27.8 µM
HCC-2998 colon
  TGI: 25.8 µM
UO-31 renal
  TGI: 26.2 µM

## c1ccc(SC23C4C5C6C4C2C6C53)nc1 (stereo not drawn)
HT29 colon
  TGI: > 100 µM
MALME-3M melanoma
  TGI: > 100 µM
SF-539 CNS
  TGI: > 100 µM
ACHN renal
  TGI: > 100 µM
UACC-62 melanoma
  TGI: > 100 µM
HOP-62 NSCLC
  TGI: > 100 µM
SF-268 CNS
  TGI: > 31.6 µM
SNB-78 CNS
  TGI: > 100 µM
OVCAR-3 ovarian
  TGI: > 100 µM
HOP-18 NSCLC
  TGI: > 100 µM
DLD-1 colon
  TGI: > 100 µM
OVCAR-5 ovarian
  TGI: > 100 µM
RXF-631 renal
  TGI: > 100 µM
NCI-H460 lung
  TGI: > 100 µM
UACC-257 melanoma
  TGI: > 100 µM
DMS 114 small cell lung
  TGI: > 100 µM
CCRF-CEM leukemia
  TGI: > 100 µM
K-562 leukemia
  TGI: > 100 µM
KM12 colon
  TGI: > 100 µM
SF-295 CNS
  TGI: > 100 µM
OVCAR-4 ovarian
  TGI: > 100 µM
A498 renal
  TGI: > 100 µM
TK-10 renal
  TGI: > 100 µM
EKVX NSCLC
  TGI: > 100 µM
OVCAR-8 ovarian
  TGI: > 100 µM
LOX IMVI melanoma
  TGI: > 100 µM
SK-MEL-5 melanoma
  TGI: > 100 µM
A549 NSCLC
  TGI: > 100 µM
SK-OV-3 ovarian
  TGI: > 100 µM
IGROV1 ovarian
  TGI: > 100 µM
786-0 renal
  TGI: > 100 µM
M19-MEL melanoma
  TGI: > 100 µM
NCI-H522 lung
  TGI: > 100 µM
DMS 273 small cell lung
  TGI: > 100 µM
HCT-116 colon
  TGI: > 100 µM
MOLT-4 leukemia
  TGI: > 100 µM
COLO 205 colon
  TGI: > 100 µM
NCI-H23 lung
  TGI: > 100 µM
M14 melanoma
  TGI: > 100 µM
SNB-19 CNS
  TGI: > 100 µM
KM20L2 colon
  TGI: > 100 µM
CAKI-1 renal
  TGI: > 100 µM
SN12C renal
  TGI: > 100 µM
SNB-75 CNS
  TGI: > 100 µM
NCI-H226 lung
  TGI: > 100 µM
HCT-15 colon
  TGI: > 100 µM
RPMI-8226 leukemia
  TGI: > 54 µM
HOP-92 NSCLC
  TGI: > 100 µM
LXFL 529 NSCLC
  TGI: > 100 µM
SK-MEL-28 melanoma
  TGI: > 100 µM
SK-MEL-2 melanoma
  TGI: > 100 µM
SW-620 colon
  TGI: > 100 µM
U251 CNS
  TGI: > 100 µM
SR leukemia
  TGI: > 35 µM
HCC-2998 colon
  TGI: > 100 µM
UO-31 renal
  TGI: > 100 µM
